Reference: patent US4276378A, “High sensitivity assays for angiotensin converting enzyme” (priority 1977, dated 1981)
Peptide text beside a SMILES is read from it. * marks the point of attachment. Bz = O=C(c1ccccc1)*

How the values were obtained:
Type in all cases: biochemical
Guinea pig serum ACE [1] = target: T1, Guinea pig serum ACE (Cavia porcellus, UniProt H0UWL7); assay: Kinetics of benzoyl-Phe-Ala-Pro hydrolysis (Example 6); settings: for V (reaction velocity): 37° C., 10 minutes
T1 sequence (H0UWL7 33-1234): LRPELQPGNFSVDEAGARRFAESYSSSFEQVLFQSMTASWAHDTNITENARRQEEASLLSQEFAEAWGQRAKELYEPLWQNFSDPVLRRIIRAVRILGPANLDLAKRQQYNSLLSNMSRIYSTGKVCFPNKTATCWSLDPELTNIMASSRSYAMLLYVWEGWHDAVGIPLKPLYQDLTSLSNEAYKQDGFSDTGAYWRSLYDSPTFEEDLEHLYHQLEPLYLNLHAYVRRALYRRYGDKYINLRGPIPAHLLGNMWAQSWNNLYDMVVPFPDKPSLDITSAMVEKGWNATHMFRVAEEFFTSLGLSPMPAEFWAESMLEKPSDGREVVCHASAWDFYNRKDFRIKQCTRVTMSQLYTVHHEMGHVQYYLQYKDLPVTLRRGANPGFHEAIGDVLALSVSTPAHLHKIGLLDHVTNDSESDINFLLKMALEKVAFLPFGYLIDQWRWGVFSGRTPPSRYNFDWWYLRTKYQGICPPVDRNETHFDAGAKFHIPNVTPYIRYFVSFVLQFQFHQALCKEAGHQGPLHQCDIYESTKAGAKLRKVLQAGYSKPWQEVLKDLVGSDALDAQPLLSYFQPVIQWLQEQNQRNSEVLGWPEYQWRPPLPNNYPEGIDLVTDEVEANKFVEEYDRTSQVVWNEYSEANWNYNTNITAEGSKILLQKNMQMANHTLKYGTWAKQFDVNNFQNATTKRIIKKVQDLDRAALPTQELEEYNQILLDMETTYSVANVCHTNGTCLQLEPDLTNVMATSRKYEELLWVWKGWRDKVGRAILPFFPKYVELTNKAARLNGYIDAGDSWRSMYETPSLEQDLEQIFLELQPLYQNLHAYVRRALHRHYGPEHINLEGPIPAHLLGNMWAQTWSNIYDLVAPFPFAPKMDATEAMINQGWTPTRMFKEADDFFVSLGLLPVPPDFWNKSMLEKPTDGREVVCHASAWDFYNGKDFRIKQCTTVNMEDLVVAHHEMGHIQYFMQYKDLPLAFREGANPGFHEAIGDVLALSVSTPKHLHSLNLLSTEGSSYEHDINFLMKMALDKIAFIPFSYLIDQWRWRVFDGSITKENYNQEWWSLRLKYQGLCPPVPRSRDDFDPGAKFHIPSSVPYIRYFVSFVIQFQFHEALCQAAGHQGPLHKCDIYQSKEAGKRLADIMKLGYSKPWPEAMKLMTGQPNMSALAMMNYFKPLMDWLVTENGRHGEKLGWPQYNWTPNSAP

ACE = assay: Apparent Km for HipHisLeu without sulfate
Guinea pig serum ACE [2] = target: T1, Guinea pig serum ACE; assay: Kinetics of sulfate-stimulated HipHisLeu hydrolysis (Example 4); settings: for V (reaction velocity): pH 8.0, 0.1 M NaCl, 37° C., 10 minutes; for V (reaction velocity) / 1/V: 0.75 M Na2 SO4; for 1/V: 0.1 M NaCl
Description: In each assay, 50 μl of Guinea pig serum diluted 1-20 (v/v) in the reaction buffer was mixed with 50 μl of buffer containing sufficient ^3 H-HipHisLeu to provide approximately 100,000 cpm total, together with sufficient unlabeled HipHisLeu to produce the desired substrate concentrations, as indicated in Table 2. […] The reaction mixture was then extracted with 1 ml ethyl acetate. 500 μl of the ethyl acetate fraction was sampled and counted in a scintillation counter.

C[C@H](NC(=O)[C@H](Cc1ccccc1)NC(=O)c1ccccc1)C(=O)N1CCC[C@H]1C(=O)O [benzoylPheAlaPro, benzoyl-Phe-Ala-Pro] (Bz-Phe-Ala-Pro-OH)
Vmax (Guinea pig serum ACE [1]; 0.05 M Hepes, pH 8.0, 0.15 M NaCl, Guinea pig serum diluted 1:1000): 10 pmol/min/mL | Km (Guinea pig serum ACE [1]; 0.05 M Hepes, pH 8.0, 0.15 M NaCl, Lineweaver and Burke plot, read-out: apparent Km): 14 µM | 1/V (Guinea pig serum ACE [1]; BenzPheAlaPro concentration 1.0 μM): 1.50 mL·min/pmol | V (reaction velocity) (Guinea pig serum ACE [1]; BenzPheAlaPro concentration 1.0 μM, 0.05 M Hepes, pH 8.0, 0.15 M NaCl): 0.67 pmol/min/mL | 1/V (Guinea pig serum ACE [1]; BenzPheAlaPro concentration 5.0 μM): 0.48 mL·min/pmol | V (reaction velocity) (Guinea pig serum ACE [1]; BenzPheAlaPro concentration 5.0 μM, 0.05 M Hepes, pH 8.0, 0.15 M NaCl): 2.08 pmol/min/mL | 1/V (Guinea pig serum ACE [1]; BenzPheAlaPro concentration 10.0 μM): 0.24 mL·min/pmol | V (reaction velocity) (Guinea pig serum ACE [1]; BenzPheAlaPro concentration 10.0 μM, 0.05 M Hepes, pH 8.0, 0.15 M NaCl): 4.17 pmol/min/mL | 1/V (Guinea pig serum ACE [1]; BenzPheAlaPro concentration 66.7 μM): 0.11 mL·min/pmol | V (reaction velocity) (Guinea pig serum ACE [1]; BenzPheAlaPro concentration 66.7 μM, 0.05 M Hepes, pH 8.0, 0.15 M NaCl): 9.09 pmol/min/mL

CC(C)C[C@H](NC(=O)[C@H](Cc1c[nH]cn1)NC(=O)CNC(=O)c1ccccc1)C(=O)O [HipHisLeu] (Bz-Gly-His-Leu-OH)
Km (ACE): ~2600 µM | Km (Guinea pig serum ACE [2]; 0.05 M Hepes, pH 8.0, 0.1 M NaCl and 0.75 M Na2 SO4, Lineweaver and Burke plot, read-out: apparent Km): 177 µM | V (reaction velocity) (Guinea pig serum ACE [2]; HipHisLeu concentration 0.01 mM, 0.05 M Hepes): 0.30 nmol/min/mL | 1/V (Guinea pig serum ACE [2]; HipHisLeu concentration 0.01 mM): 3.33 mL·min/nmol | V (reaction velocity) (Guinea pig serum ACE [2]; HipHisLeu concentration 0.02 mM, 0.05 M Hepes): 0.52 nmol/min/mL | 1/V (Guinea pig serum ACE [2]; HipHisLeu concentration 0.02 mM): 1.92 mL·min/nmol | V (reaction velocity) (Guinea pig serum ACE [2]; HipHisLeu concentration 0.03 mM, 0.05 M Hepes): 0.74 nmol/min/mL | 1/V (Guinea pig serum ACE [2]; HipHisLeu concentration 0.03 mM): 1.35 mL·min/nmol | V (reaction velocity) (Guinea pig serum ACE [2]; HipHisLeu concentration 0.04 mM, 0.05 M Hepes): 1.28 nmol/min/mL | 1/V (Guinea pig serum ACE [2]; HipHisLeu concentration 0.04 mM): 0.78 mL·min/nmol | V (reaction velocity) (Guinea pig serum ACE [2]; HipHisLeu concentration 0.05 mM, 0.05 M Hepes): 1.14 nmol/min/mL | 1/V (Guinea pig serum ACE [2]; HipHisLeu concentration 0.05 mM): 0.88 mL·min/nmol | V (reaction velocity) (Guinea pig serum ACE [2]; HipHisLeu concentration 0.06 mM, 0.05 M Hepes): 1.28 nmol/min/mL | 1/V (Guinea pig serum ACE [2]; HipHisLeu concentration 0.06 mM): 0.78 mL·min/nmol | V (reaction velocity) (Guinea pig serum ACE [2]; HipHisLeu concentration 0.07 mM, 0.05 M Hepes): 2.14 nmol/min/mL | 1/V (Guinea pig serum ACE [2]; HipHisLeu concentration 0.07 mM): 0.47 mL·min/nmol | V (reaction velocity) (Guinea pig serum ACE [2]; HipHisLeu concentration 0.08 mM, 0.05 M Hepes): 1.76 nmol/min/mL | 1/V (Guinea pig serum ACE [2]; HipHisLeu concentration 0.08 mM): 0.57 mL·min/nmol
